Measurements: ChEMBL document CHEMBL1130718, “(2Z,4E)-5-(5,6-dichloro-2-indolyl)-2-methoxy-N-(1,2,2,6,6- pentamethylpiperidin-4-yl)-2,4-pentadienamide, a novel, potent and selective inhibitor of the osteoclast V-ATPase” (Bioorg Med Chem Lett, 1998)

Assays:
Homo sapiens [1] = species on record: Homo sapiens; test: Ability to inhibit bone resorption in human osteoclast obtained from giant cell tumors of bone; assay type: functional
[2] = Compound selectivity was assessed using vacuolar type proton ATPase from human kidney cortex (hK)
[3] = Compound selectivity was assessed using vacuolar type proton ATPase from chicken adrenal glands (cAG); assay type: tissue-based, Adrenal gland
Homo sapiens [4] = species on record: Homo sapiens; test: In vitro human osteoclast activity for bone resorption was assessed by ELISA assay; assay type: functional
[5] = Compound selectivity was assessed using vacuolar type proton ATPase from human kidney cortex(hK)

| Compound | IC50 (Homo sapiens [1]) | IC50 [2] | IC50 [3] | IC50 (Homo sapiens [4]) | IC50 [5] |
| --- | --- | --- | --- | --- | --- |
| CO/C(=C\C=C\c1cc2cc(Cl)c(Cl)cc2[nH]1)C(=O)NC1CC(C)(C)N(C)C(C)(C)C1 | 13.5 nM | 158 nM | 125 nM | 3.4 nM | – |
| CO/C(=C/C=C/c1cc2cc(Cl)c(Cl)cc2[nH]1)C(=O)NC1CC(C)(C)N(C)C(C)(C)C1 | – | – | – | – | 6330 nM |
| CO/C(=C\C=C/c1cc2cc(Cl)c(Cl)cc2[nH]1)C(=O)NC1CC(C)(C)N(C)C(C)(C)C1 | – | 2500 nM | – | – | – |
